Reference: patent US20200179296A1, “Accelerated Clearance of Biologic Therapeutics Using Click-Antidotes” (The Regents of the University of Colorado, a body corporate, priority 2018, published 2020)

Tests used:
[1] = Size and zeta potential of the antidotes (Zetasizer Nano ZS), particle concentration; format: physicochemical
Excerpt: Synthesis of CLIO and CLIO NWs: CLIO NWs were synthesized from native 20 kDa dextran (Sigma) whereas CLIO were synthesized from reduced T-10 (10 k Da) dextran (Pharmacosmos). Dextran, Fe (III) chloride and Fe (II) chloride were mixed in DDW and titrated with ammonia using a modified Molday precipitation method. The ratio between dextran and iron salts determined the final size of the nanoparticles. Excess dextran was removed with ultrafiltration and the particles were crosslinked with epichlorohydrin as described. Excess epichlorohydrin was removed with ultrafiltration and particles were aminated by addition of ammonium hydroxide (CLIO NWs) or diaminohexane (CLIO) overnight at 4° C. […] Size and zeta potential were determined using Zetasizer Nano ZS (Malvern Instruments Ltd, Malvern, UK). […] The amino group content was determined by reaction with Cy7-NHS. […] The amount of the reacted dye was determined by the difference in the supernatant fluorescence between the reaction tube and control tube (no particles). The number of amines per nanoparticle was determined to be ˜100,000 per CLIO and CLIO NW.
BSA-TCO size and zeta potential are similar to those of native BSA values reported in literature. Particle concentration of BSA was determined based on Mw of 67 kDa; CLIO and CLIONW concentration was determined as described before. […]

[2] = Elimination profile and organ distribution of NIR-labeled antidotes after i.v. injection; format: in vivo; conditions: female BALB/c mice
Excerpt: FIGS. 1A-1F show the antidotes used in the study. […] The nanocarriers were modified with click groups (DSPE-PEG3400 with MTZ, BSA with TCO, CLIO NW and CLIO with TCO) as described in Methods. […] Crosslinked dextran shell is not visible. Size bar=50 nm. FIGS. 1C-1F show the elimination profile of the antidotes and organ distribution (NIR images). Labels are as follows: k-kidney, s-spleen, Iv-liver, i-intestine, lu-lung, h-heart). DSPE-PEG-MTZ, BSA-TCO and CLIO NW-TCO are long circulating particles, whereas CLIO-TCO are short circulating particles. […] N=3 mice per group.
Female BALB/c mice 6-8 weeks old were used for the experiments and bred in house. In order to determine circulation half-life of NIR-labeled antibodies and antidotes, 2 μL blood were collected at different time points through retroorbital vein or mandibular vein and were applied in duplicates on a 0.22 μm nitrocellulose membrane and scanned at 800 nm using Li-COR Odyssey. The spot integrated density of a 16-bit TIFF image was measured with ImageJ and plotted as a function of time. The fluorescence of dots at initial time point was used as 100%. […] Mean fluorescence was determined from 16-bit images using ImageJ software by subtracting the background, drawing a ROI around the organs, and using a measure function to determine mean gray value. […]

IRDye 800CW-labeled IgG [3] = experiment: In vivo depletion of blood IgG by click-modified antidotes; design: species or system BALB/c mice
Method: Blood IgG levels were measured at different time points, up to 72 h post injection. […] Black line is “IgG only”, green line is “IgG+antidote”. Time of IgG injection is “0” on the X-axis. The antidotes were injected at different times after IgG injection as marked by red arrows. First blood draw was at 1 h post-IgG injection (100%). The IgG only (control) group was included in every experiment. […] Two tailed t-test, n=3 mice per group.
Female BALB/c mice 6-8 weeks old were used for the experiments and bred in house. In order to determine circulation half-life of NIR-labeled antibodies and antidotes, 2 μL blood were collected at different time points through retroorbital vein or mandibular vein and were applied in duplicates on a 0.22 μm nitrocellulose membrane and scanned at 800 nm using Li-COR Odyssey. The spot integrated density of a 16-bit TIFF image was measured with ImageJ and plotted as a function of time. The fluorescence of dots at initial time point was used as 100%. For organ distribution, mice were euthanized at 48-72 h post injection and the organs were placed in wells on a 12-well plate. Organs were scanned with Li-COR Odyssey at 800 nm. Mean fluorescence was determined from 16-bit images using ImageJ software by subtracting the background, drawing a ROI around the organs, and using a measure function to determine mean gray value.
In order to test the depletion efficiency of the antidotes, female BALB/c mice were injected with 25 μg IRDye 800CW-labeled IgG followed by PBS (control) or the antidote, and the levels of IgG in blood (both antidote-bound and free) were measured at different times post-IgG injection (FIG. 2A). […] To test the ability of DSPE-PEG-MTZ to decrease total blood levels of IgG (both antidote bound and free), mice were injected with IRDye 800CW-IgG-TCO followed 1.5 h later with the lipid (1 mg, 1660-fold molar excess of MTZ groups). […] To test the depletion efficiency of BSA-TCO, we injected mice with 25 μg of IgG-MTZ followed by BSA-TCO at 2 h and 3 h post-IgG injection (500 μg each; ˜400 fold excess of TCO; 92-fold excess of surface-binding capacity). […] In view of the large excess of the injected lipid and BSA over IgG, it is unlikely that insufficient binding capacity is responsible for the observed difference in the depletion efficiency of these antidotes. To further investigate which factors contribute to the depletion efficiency, CLIO-TCO and CLIO NW-TCO were compared that have similar sizes but different blood half-lives (FIGS. 2E, 2F). […] It was also confirmed that CLIO-TCO specifically binds to IgG via click chemistry (FIG. 11B), which confirms that the observed decrease in IgG blood fluorescence was due to depletion.

IRDye 800CW-labeled IgG [4] = experiment: Organ distribution of IgG fluorescence in control and antidote-injected groups; format: in vivo, BALB/c mice; conditions: 48-72 h after antidote injection
Excerpt: Graphs show mean gray value of fluorescence scans, images show colored images in 800 nm channel. Organs were scanned in […]; each organ's image corresponds to the bar graph below; representative images are shown. The signal represents both circulating IgG and organ-deposited IgG. Brightness and contrast were adjusted to the same extent in control and treated groups of the same experiment. Due to scanner settings, antibody batch and time when the experiment was terminated, the grey values show differences between experiments. 2-way ANOVA test with multiple comparisons, n=3 mice per group. Means and SD of experimental replicates are shown
Female BALB/c mice 6-8 weeks old were used for the experiments and bred in house. […] The spot integrated density of a 16-bit TIFF image was measured with ImageJ and plotted as a function of time. The fluorescence of dots at initial time point was used as 100%. […] Mean fluorescence was determined from 16-bit images using ImageJ software by subtracting the background, drawing a ROI around the organs, and using a measure function to determine mean gray value.
To study the depletion in the peripheral organs, the main organs were scanned 48-72 h after the antidote injection with Li-COR Odyssey NIR scanner. The mean fluorescence reflects both the deposited IgG and the circulating IgG (either free or antidote-bound). […]

Substance: BSA-TCO: bovine serum albumin conjugated with TCO-PEG4-NHS ester; macromolecule-based click antidote
- Particles per mg ([1]; BSA based on Mw of 67 kDa): 9 × 10^12 per mg
- Diameter ([1]; hydrodynamic diameter, intensity-weighted distribution): 8 nm
- Organ accumulation of the antidote ([2]; NIR organ images): significant accumulation in the lungs
- Elimination half-life (slow phase) ([2]; i.v., blood): 4 h
- Decrease in blood level of IgG at 3 h post-IgG injection vs control (IRDye 800CW-labeled IgG [3]; 25 μg IgG-MTZ, BSA-TCO 500 μg at 2 h and 3 h, CLIO-TCO 290 μg at 1 h): 40%
- Decrease in blood level of IgG at 24 h post IgG injection vs control (IRDye 800CW-labeled IgG [3]; 25 μg IgG, DSPE-PEG-MTZ 1 mg, BSA-TCO 2 x 500 μg, CLIO-TCO 290 μg): 53%
- Decrease in AUC24 h of blood IgG vs control, 3 injections of antidote (IRDye 800CW-labeled IgG [3]; BSA-TCO 500 μg at 1.5, 3, 23 h, CLIO-TCO 150 μg at 2, 3, 4 h post-IgG): 38%
- Decrease in AUC24 h of blood IgG vs control (IRDye 800CW-labeled IgG [3]; DSPE-PEG-MTZ 1 injection 1 mg, BSA-TCO 2 injections 500 μg each, CLIO-TCO 1 injection 290 μg): 41%
- Effect on IgG fluorescence in the liver (IRDye 800CW-labeled IgG [4]): increased the liver fluorescence
- Effect on IgG fluorescence in the organs (IRDye 800CW-labeled IgG [4]; Li-COR 800 nm): did not decrease the level of fluorescence in other organs
